Experimental data taken from patent US6251882A, “Alkyl ketones as potent anti-cancer agents” (Parker Hughes Institute, priority 1999, dated 2001).

Experiments:
[1] = system: MDA-MB-231 breast cancer cells; test: Cell invasion assay (Matrigel-coated Boyden chambers), MDA-MB-231; type: cell-based, human; settings: through Matrigel matrix, 2.5 μM to 25 μM, 48 hours (FIG. 4)
Method: (§1) The in vitro invasiveness of MDA-MB-231 breast cancer cells and U373 glioblastoma cells was assayed using a previously published method which employs Matrigel-coated Costar 24-well transwell cell culture chambers ("Boyden chambers") with 8.0-μm-pore polycarbonate filter inserts (Albini, et al., 1987, Cancer Res., 47:3239-3245). The chamber filters were coated with 50 μg/ml of Matrigel matrix, incubated overnight at room temperature under a laminar flow hood and stored at 4° C. Matrigel matrix is made up of several components of the extracellular matrix (ECM), including collagens, laminin and proteo-glycans.
(§2) On the day of the experiment, the coated inserts were rehydrated with 0.5 ml serum-free DMEM containing 0.1% bovine serum albumin for 1-2 hours. […] The cells were trypsinized, washed twice with serum-free DMEM containing BSA, counted and resuspended at 1×10^5 cells/ml. […] The invasive cells that migrated to the lower side of the filter were fixed, stained with Hema-3 solutions and counted under microscope. Five to 10 random fields per filter were counted to determine the mean (SE) values for the invasive fraction. The invasive fractions of cells treated with HI-131 were compared to those of DMSO treated control cells and the percent invading relative to the control was determined using the formula: [formula]
(§3) Each treatment condition was evaluated in duplicate in 3 independent experiments. […]

[2] = system: MOLT-3 cells; test: Apoptosis induction, MOLT-3 cells; type: cell-based; settings: Homo sapiens, MOLT-3, 24 h; vs vehicle control (FIG. 3)
Method: (§4) The ability of HI-131 to induce apoptosis cells was evaluated in human leukemia in NALM-6 cells and primary leukemic cells from 2 patients. Cells were treated with 50 μM compound HI-131 for 24 hours. After incubation, the cells were harvested and analyzed for apoptosis by in situ TUNNEL analysis and confocal laser scanning microscopy as described in Sudbeck et al., 1999, Clin Cancer Res., 5:1589-82. Controls were treated with vehicle alone.
(§5) Induction of apoptosis was further evaluated in primary leukemic cells and established NALM-6 and MOLT-3 cell lines following treatment with HI-131.

[3] = system: Nalm-6 (B-lineage ALL); test: MTT cytotoxicity assay, Nalm-6; type: cell-based; settings: Homo sapiens, 24-36 hours at 37° C., 0.1 to 250 μM
Method: (§6) Cytotoxicity of various compounds against tumor cells was performed using the MTT (3-[4,5-[…]]-2,5-diphenyl tetrazolium bromide) assay (Boehringer Mannheim Corp., Indianapolis, Ind.). Unless otherwise specified, all cell lines were obtained from the American Type Culture Collection (ATCC). Briefly, exponentially growing cells were seeded into a 96-well plate at a density of 2.5×10^4 cells/well and incubated for 36 hours at 37° C. prior to drug exposure. On the day of treatment, culture medium was carefully aspirated from the wells and replaced with fresh medium containing the indicated compound at concentrations ranging from 0.1 to 250 μM. Triplicate wells were used for each treatment.
(§7) Human leukemic cell lines (NALM-6, MOLT-3) glioblastoma cells (U373) and human breast tumor cell lines (BT20 and MDA-MB-231) were obtained from the American Type Culture Collection and maintained as a continuous cell line in Dulbecco's modified Eagles's medium supplemented with 10% fetal bovine serum and antibiotics.
(§8) The cells were incubated with the various compounds for 24-36 hours at 37° C. in a humidified 5% CO2 atmosphere. To each well, 10 μl of MTT (0.5 mg/ml final concentration) was added and the plates were incubated at 37° C. for 4 hours to allow MTT to form formazan crystals by reacting with metabolically active cells. The formazan crystals were solubilized overnight at 37° C. in a solution containing 10% SDS in 0.01 M HCl. The absorbence of each well was measured in a microplate reader (Labsystems) at 540 nm and a reference wavelength of […]. To translate the OD540 values into the number of live cells in each well, the OD540 values were compared to those on standard OD540 --versus--cell number curves generated for each cell line. The percent survival was calculated using the formula: [formula]
(§9) The IC50 values were calculated by non-linear regression analysis and are shown below in Tables 1-6.

[4] = system: BT-20 (breast cancer); test: MTT cytotoxicity assay, BT-20; type: cell-based; settings: Homo sapiens, 24-36 hours at 37° C., 0.1 to 250 μM
Method: as §6, §7, §8, §9

[5] = system: Molt-3 (T-lineage ALL); test: MTT cytotoxicity assay, Molt-3; type: cell-based, human; settings: MTT, 24-36 hours at 37° C., 0.1 to 250 μM
Method: as §6, §7, §8, §9

[6] = system: PC-3 (prostate cancer); test: MTT cytotoxicity assay, PC-3; type: cell-based; settings: 24-36 hours at 37° C., 0.1 to 250 μM
Method: as §6, §8, §9

[7] = system: primary leukemic cells; test: Apoptosis induction, primary leukemic cells (in situ TUNNEL, confocal microscopy); type: cell-based, human
Method: as §4, §5

[8] = system: primary leukemia cells; test: MTT cytotoxicity in primary cancer cells from six children with leukemia; type: cell-based, human; settings: 0 to 50 μM, all six patients
Method: as §6
The cells were incubated with the various compounds for 24-36 hours at 37° C. in a humidified 5% CO2 atmosphere. […] The absorbence of each well was measured in a microplate reader (Labsystems) at 540 nm and a reference wavelength of 690 um. […] The percent survival was calculated using the formula: [formula]
The cytotoxicity of HI-131 against primary cancer cells was evaluated in leukemia cells taken from six children (FIG. 1A), using the MTT assay described for Example 3. […] Percent survival was calculated as described for Example 3 and plotted against the HI-131 concentration used in the experiment. […]

[9] = system: U-373 (glioblastoma); test: MTT cytotoxicity assay, U-373; type: cell-based; settings: Homo sapiens, U373 MG, 24-36 hours at 37° C., 0.1 to 250 μM
Method: as §6, §7, §8, §9

[10] = system: U373 glioblastoma cells; test: Cell invasion assay (Matrigel-coated Boyden chambers), U373; type: cell-based, human; settings: through Matrigel matrix, 1 μM to 25 μM, 48 hours (FIG. 5)
Method: as §1, §2, §3

[11] = system: NALM-6 cells; test: Apoptosis induction, NALM-6 cells (in situ TUNNEL, confocal microscopy); type: cell-based, human
Method: as §4, §5

Question: `CCCCCCCCCCCCSC[C@H](NC(C)=O)C(=O)CCl` [HI-131, N-Ac-S-dodecyl-Cys chloromethyl ketone] was tested. Which “inhibition of invasion, MDA-MB-231” value [1] did it give?
Answer: inhibited the invasion

Question: And the fold induction at 50 µM [2]?
Answer: ~20

Question: What about the IC50 [3] of the same compound?
Answer: 2 µM

Question: And the IC50 [4]?
Answer: 10 µM

Question: And the IC50 [5]?
Answer: 2.3 µM

Question: What about the IC50 [6] of the same compound?
Answer: 22.1 µM

Question: What about the “apoptosis induction (TUNNEL/confocal), primary leukemic cells” value ([7]; 50 μM, 24 hours, 2 patients) of the same compound?
Answer: greatly induced apoptosis

Question: And the fold induction at 50 µM ([7]; Homo sapiens, 24 h, typical, vs vehicle control (FIG. 3))?
Answer: ~4

Question: And the “rate of apoptosis, primary leukemic cell samples” value ([7]; all but one of the samples (FIG. 3))?
Answer: increased dramatically

Question: And the “cytotoxic effect in primary cancer cells” value [8]?
Answer: dose dependent cytotoxic effect

Question: And the IC50 [9]?
Answer: 35.1 µM

Question: What about the “inhibition of invasion, U373” value [10] of the same compound?
Answer: inhibited the invasion

Question: What about the “apoptosis induction (TUNNEL/confocal), NALM-6” value ([11]; 50 μM, 24 hours) of the same compound?
Answer: greatly induced apoptosis

Question: And the fold induction at 50 µM ([11]; Homo sapiens, NALM-6, 24 h, vs vehicle control (FIG. 3))?
Answer: ~20
